Our source for the binding values is paper PMC4081081 (2014).

The test has as its system T25 (DNA, single strand, C6-amino dT at 8 of strand 2) TGGCGACGGCAGCGAGGCTTTTTTTTTTTTTTTTTTTTTTTTT/GCCTCGCTGCCGTCGCCA
The test is described as follows: Cy3 fluorescence quenching. The following applies: 100 mM KCl; 10 mM Tris-HCl pH 7.5, room temperature, 50 nM DNA; negative control, nonspecific quenching taken as background.

Each structure is given as a SMILES string.

For the molecule `CCc1c(C)c2cc3nc(cc4nc(cc5c(CC)c(C)c(cc1[nH]2)n5C)C(C)=C4CCC(=O)O)C(CCC(=O)O)=C3C`, the binding result is “weak”.
